Key:
[1] = Example 4 food effects study of Formulation B; assay type: in vivo, hypogonadal men
Procedure: Subjects were randomized to receive the drug in the fasting state or 30 minutes after consumption of meals containing ˜800 calories with specific amounts of fat (wt %): very low fat (6-10%); low fat (20%); “normal” diet fat (30%); or high fat (50%). The “normal” diet was, a priori, established as the comparator (i.e., reference diet) for purposes of statistical comparisons. Serial blood samples were collected for a total of 24 hours after drug administration to determine serum testosterone and dihydrotestosterone (DHT) levels by liquid chromatography-mass spectroscopy (LC/MS/MS).

[2] = Seven-day repeat-dose pharmacokinetic study (study LOT-A), TU BID; assay type: in vivo, hypogonadal men; conditions: for Baseline-corrected Cavg / Tmax: serum T
Procedure: The probability model was based on the pharmacokinetic results obtained from the hypogonadal patient population that participated in the two multi-dose TU treatments in study LOT-A. As noted previously, 29 hypogonadal males participated in the study, 28 of them completed Treatment Period 1 (300 mg T, as TU, BID) and 24 of them completed Treatment Period 3 (200 mg T, as TU, BID).
Formulation B was studied for its acute tolerability and steady-state serum pharmacokinetic profile at two doses administered twice-daily to hypogonadal men. The study was designed as an open-label, repeat dose, cross-over, pharmacokinetic study (with food effect examined in one arm).
Twenty nine (29) hypogonadal men were enrolled after giving written informed consent, 24 of which completed the study. Each subject who completed the study received a regimen of Formulation B as follows: […]
1. 7 daily doses of 600 mg T as TU BID (300 mg/dose), i.e., 3 capsules/dose 2. 8 daily doses of 400 mg T as TU BID (200 mg/dose)
Doses were administered as capsules to subjects 30 minutes after initiation of meals (breakfast and dinner), except for Day 8, when the morning dose was administered fasting.

CCCCCCCCCCC(=O)O[C@H]1CC[C@H]2[C@@H]3CCC4=CC(=O)CC[C@]4(C)[C@H]3CC[C@]12C [TU, testosterone undecanoate]
Difference in serum T response ([1]; high-fat vs normal-fat meal): < 30%
90% confidence interval, serum T PK parameters ([1]; low-fat vs normal fat diet, single 300 mg T dose): 85-125%
Decrease in serum T exposures (Cmax and AUC) ([2]; fasting conditions vs meal): greater than 50%
DHT concentrations as percent of T concentrations ([2]; in vivo): 11-34%
Pre-dose steady-state estradiol concentrations ([2]; in vivo): 20 to 30 pg/mL
Mean baseline T concentration (endogenous T production) ([2]; prior to Treatment Period 2, after washout): 152 ng/dL
Mean baseline T concentration (endogenous T production) ([2]; prior to Treatment Period 3, after washout): 139 ng/dL
Mean baseline T concentration (endogenous T production) ([2]; prior to Treatment Period 4, after washout): 145 ng/dL
Baseline-corrected Cavg ([2]; 200 mg BID): 379 ± 255
Baseline-corrected Cavg ([2]; 300 mg BID): 586 ± 330
Tmax ([2]; 300 mg BID, AM dose): 4.5 ± 2.1 h
Tmax ([2]; 300 mg BID, PM dose): 17.9 ± 2.6 h
Subjects with serum T Cavg in the eugonadal range over 24 hours ([2]; simulated 24-hour profile from 12-hour data, 200 mg T (as TU) BID, fed): 77%
